Data taken from US20190125786A1, “NOBLE GAS MODULATION OF IL-12” (NOBILIS THERAPEUTICS, INC., priority 2016, published 2019).

Columns and labels:
[1] = system: monocytes (adherent peripheral blood mononuclear cells); experiment: Suppression of Alzheimer's peptide induced monocyte TNF-alpha production (ELISA); assay type: cell-based, healthy volunteers; conditions: adherent cells cultured 1 hour or 2 hours in 30% xenon by volume; 1 ug/ml LPS and 10 μM Aβ (1-42) for 24 h; supernatant ELISA; FIG. 1
Description: 10 ml of heparinized blood was extracted from healthy volunteers and peripheral blood mononuclear cells were isolated by centrifugation over a ficoll gradient. Cells were subsequently washed in 2× volume phosphate buffered saline, and resuspended in RPMI media supplemented with 10% fetal calf serum. Cells were incubated at a concentration of 10 million cells per ml in 6-well plates in a volume of 2 ml per well. Cells were cultured for 24 hours at 37 Celsius in a fully humidified atmosphere with 5% CO2, subsequent to which non-adherent cells were removed by washing with PBS. Adherent cells were subsequently divided into […], one plate incubated at normoxic tissue culture, the second plate cultured for 1 hour in 30% xenon by volume, and the third tissue cultured for 2 hours in 30% volume. Cells were treated with control media, 1 ug/ml LPS and 10 μM of amyloid beta peptide Aβ (1-42) for 24 h. Supernatant was collected and assessed for TNF-alpha production by ELISA.

[2] = system: CD1c dendritic cells; experiment: Suppression of Alzheimer's peptide induced dendritic cell IL-12 production (ELISA); assay type: cell-based, healthy volunteers; conditions: monocyte-derived CD1c dendritic cells; 1 ug/ml LPS and 10 μM Aβ (1-42) for 24 h; supernatant ELISA; FIG. 2
Description: Monocytes from adherent PBMC were isolated as described in Example 1. Dendritic cells were generated by 7 day culture in IL-4 (10 ng/ml) and GM-CSF (20 ng/ml). Media was changed every two days. On day 7, purification of CD1c dendritic cells was performed and cells were cultured in control media, 1 ug/ml LPS and 10 μM of amyloid beta peptide Aβ (1-42) for 24 h. Supernatant was collected and assessed for IL-12 production by ELISA.

[Xe] [xenon gas, xenon]
induced TNF-alpha production [1]: suppression of induced TNF-alpha production was observed
induced IL-12 production [2]: suppression of induced IL-12 production was observed
